Ten compounds from patent US9656981B2, “Peripherally-acting cannabinoid receptor agonists for chronic pain” (The Regents of the University of California, priority 2012, dated 2017) can be followed below.

Where two headings read alike, the source gives them in different places.

Series [1] deals with sciatic nerve entrapment (SNE) neuropathy. Nature of the series: SNE neuropathy, mechanical allodynia (von Frey). It is filed as in vivo, rat. The conditions noted are these: for effect of pretreatment with the CBR blocker on the anti-allodynic effect of PrNMI: blocker before PrNMI 0.6 mg/kg, SNE rats. On the procedure:
The effectiveness of CBR agonists was tested for alleviating the painful symptoms of neuropathy induced by unilateral sciatic nerve entrapment (SNE)^131. The peripheral neuropathy induced by SNE is highly comparative to that of chronic constriction injury (CCI), which uses chromic gut suture materials instead of polyethylene cuffs^132. […] This increased excitability is at least in part attributable to injury-induced post-transcriptional transport of the voltage-gated sodium channel 1.8 (NaV1.8) mRNA, axonal accumulation of NaV1.8 mRNA, and its local protein translation leading to the increased NaV1.8 functional expression in injured nerve^136. The hyperexcitability and ectopic burst discharge of primary sensory neurons are widely considered to be the major contributors to pain symptomatology of peripheral neuropathy models. The SNE-induced mechanical allodynia effectively models the most common complaint of human neuropathy patients of dynamic mechanical allodynia. Behavioral measurements of mechanical sensitivity were conducted before and after induction of SNE as follows:
Rats are placed in a plastic-walled cage (10×20×13 cm) with a metal mesh floor (0.6×0.6 cm holes) and allowed to acclimate for 10 min. The amount of pressure (g) needed to evoke a hindpaw withdrawal response is measured 4 times on each paw separated by 30-s intervals using a von Frey-type digital meter (Model 1601C, IITC Instr.). Results of 4 tests/session are averaged for each paw.

The nature of series [2]: Plasma stability assay. Format: in vitro ADME. The conditions noted are these: rat plasma, 10 μM. On the procedure:
Compounds are incubated at 10 μM in rat plasma at 37° C. A solution of each compound is prepared in ethanol at a concentration of 1 mM. A 2.5 μL volume of the 1 mM solution is added to 247.5 μL of rat plasma (male Sprague Dawley) in a glass test tube in a 37° C. water bath. Samples (50 μL) are removed at 0, 30 and 60 min and immediately extracted with 3 volumes (150 μL) of methanol. Samples are centrifuged (2500 rpm for 10 min at 4° C.) to pellet protein and supernatants transferred to LC/MS vials for analysis. Samples are stored at −80° C. prior to analysis.

For series [3], the target named is CB1R (Homo sapiens, UniProt P21554). Nature of the series: CB1R radioligand displacement binding assay (CP55940 radioligand). On the procedure:
Heterologous competition binding assays were performed to calculate receptor affinities. Unlabeled SR141716 or SR144528 were used as appropriate controls for non-specific binding (NSB) in the assay. Calculation of the equilibrium dissociation constant (Ki) was performed using the Cheng-Prusoff equation.

Series [4] addresses CB2R (Homo sapiens, UniProt P34972). The series can be described thus: CB2R radioligand displacement binding assay (CP55940 radioligand). On the procedure:
Detailed radioligand displacement assays (using the well-characterized CBR agonist […] as the radioligand) were conducted to determine the affinity (Ki) of the test compounds for CB1R and CB2R as has been previously described by our group^112,113. Heterologous competition binding assays were performed to calculate receptor affinities. Unlabeled SR141716 or SR144528 were used as appropriate controls for non-specific binding (NSB) in the assay. Calculation of the equilibrium dissociation constant (Ki) was performed using the Cheng-Prusoff equation.

Series [5] is described as follows: S9 fraction stability assay. To be noted: rat liver S9, 10 μM. It is filed as in vitro ADME. On the procedure: Compounds are incubated at 10 μM in rat (male Sprague Dawley) liver S9 at 37° C. Each compound is prepared in ethanol at a concentration of 1 mM. An assay mixture containing S9 (1 mg protein/mL final concentration) and an NADPH regenerating system (NADP [1 mM final], glucose 6-phosphate [5 mM final] and glucose 6-phosphate dehydrogenase [1 U/mL final]) in a buffer consisting of 50 mM KPO4 phosphate buffer, pH 7.4 with 3 mM MgCl2 is prepared and preincubated at 37° C. for 5 min. A 10 μL volume of the 1 mM solution is added to 990 μL of assay mixture in a glass test tube @ 37° C. to initiate the assay. Samples (50 μL) are removed at 0, 15, 30, 60 and 120 min and immediately extracted with 3 volumes (150 μL) of methanol, centrifuged to pellet protein and supernatants transferred to LC/MS vials for analysis.

The mark [6] stands for this setting: Table 1, CP55940 radioligand, read-out: CB1_KI_CP.
Where [7] appears, read: Table 1, CP55940 radioligand, read-out: CB2_KI_CP.

Sequence of CB1R (P21554 whole entry): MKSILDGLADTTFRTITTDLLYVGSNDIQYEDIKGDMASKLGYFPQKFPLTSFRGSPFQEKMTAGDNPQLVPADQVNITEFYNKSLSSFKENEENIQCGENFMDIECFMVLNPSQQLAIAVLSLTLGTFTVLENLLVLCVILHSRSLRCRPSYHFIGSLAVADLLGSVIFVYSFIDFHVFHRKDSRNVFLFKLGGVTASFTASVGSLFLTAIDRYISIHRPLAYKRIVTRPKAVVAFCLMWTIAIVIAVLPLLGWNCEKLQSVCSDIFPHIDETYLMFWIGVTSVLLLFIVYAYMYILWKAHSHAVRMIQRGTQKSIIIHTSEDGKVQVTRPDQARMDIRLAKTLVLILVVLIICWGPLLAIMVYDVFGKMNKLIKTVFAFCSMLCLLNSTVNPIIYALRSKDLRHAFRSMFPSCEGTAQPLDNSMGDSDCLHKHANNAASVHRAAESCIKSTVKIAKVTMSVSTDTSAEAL
Sequence of CB2R (P34972 whole entry): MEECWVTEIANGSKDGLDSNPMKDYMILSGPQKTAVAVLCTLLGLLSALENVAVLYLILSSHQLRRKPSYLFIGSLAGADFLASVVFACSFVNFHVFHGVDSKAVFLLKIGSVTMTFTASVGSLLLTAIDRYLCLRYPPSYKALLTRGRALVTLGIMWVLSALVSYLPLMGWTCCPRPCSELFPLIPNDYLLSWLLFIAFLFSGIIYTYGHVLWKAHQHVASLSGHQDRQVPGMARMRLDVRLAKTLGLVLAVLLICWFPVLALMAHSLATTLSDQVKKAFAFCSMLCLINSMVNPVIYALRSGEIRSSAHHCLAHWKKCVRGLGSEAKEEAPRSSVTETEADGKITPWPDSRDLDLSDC

“4-{2-[(1E)-2-[(4- methoxy- naphthalen-1- yl)methylidene]- 1H-inden-3- yl]ethyl} morpholine [Compound 10]”: the “effect on contralateral hindpaw withdrawal thresholds” value in series [1] (0.3 mg/kg, hindpaw contralateral to SNE) was “Neither ENMI nor 13339-135-25 had any significant effect”.
`CCCCCn1cc(C(=O)c2ccc(C(=O)OC)c3ccccc23)c2ccccc21` [Compound 54, methyl 4-(1-pentyl-1H-indole-3-carbonyl) naphthalene-1-carboxylate]: the “Plasma % remaining @ xy min” value in series [2] (30 min) is given as 9.6 @ 30%. Besides, the Ki in series [3] (read-out: CB1R binding affinity (Ki)) was 20 nM; in series [4], 73.4 nM. The “S9% remaining @ xy min” value in series [5] (30 min) is recorded as 2.62 @ 30%; in series [5] (30 min, listed as 4-carbomethoxy ester) it was 3%. Moreover, in series [1] (0.3 mg/kg), the “SNE Neuropath Assay-% return to pre-drug (0.3 mg/kg) contralateal threshold at 2-3 h” value is 0%.
Consider `COC(=O)c1ccc(C(=O)c2cn(CCN3CCOCC3)c3ccccc23)c2ccccc12` [Compound 56, methyl 4-{1-[2-(morpholin-4-yl)ethyl]-1H-indole-3-carbonyl} naphthalene-1-carboxylate], for which the “Plasma % remaining @ xy min” value in series [2] (60 min) is given as 0 @ 60%. In addition, the Ki in series [3] (setting [6]) is 52.4 nM; in series [4], 61.4 nM. The “S9% remaining @ xy min” value in series [5] (60 min) is listed as 0 @ 60%.
With `CCCCCn1cc(C(=O)c2ccc(C(=O)CC)c3ccccc23)c2ccccc21` [Compound 61, 1-[4-(1-pentyl-1H-indole-3-carbonyl)naphthalen-1-yl]propan-1-one], the “Plasma % remaining @ xy min” value in series [2] (60 min) is recorded as 75 @ 60%. The values for the Ki in series [3] (setting [6]) and in series [4] were 5.71 nM and 32.7 nM, respectively. Further, the “S9% remaining @ xy min” value in series [5] (60 min) is on record as 3 @ 60%.
As to `CCCCCn1cc(C(=O)c2cccc3ccccc23)c2c(F)cccc21` [Compound 62, 4-fluoro-3-(naphthalene-1-carbonyl)-1-pentyl-1H-indole], the “Plasma % remaining @ xy min” value in series [2] (60 min) is 69 @ 60%. Further, the Ki in series [3] (setting [6]) is 6.5 nM; in series [4] (setting [7]) it was 35.6 nM. Besides, the “S9% remaining @ xy min” value in series [5] (60 min) is given as 5 @ 60%.
Consider `CCCCCn1cc(C(=O)c2cccc3ccccc23)c2cc(F)ccc21` [Compound 63, 5-fluoro-3-(naphthalene-1-carbonyl)-1-pentyl-1H-indole], for which the “Plasma % remaining @ xy min” value in series [2] (60 min) is recorded as 99 @ 60%. For the same compound, the Ki turned out to be 9.85 nM in series [3] (setting [6]) and 65 nM in series [4] (setting [7]). Moreover, in series [5] (60 min), the “S9% remaining @ xy min” value was 13 @ 60%.
Regarding `CCCCCn1cc(C(=O)c2cccc3ccccc23)c2ccc(F)cc21` [Compound 64, 6-fluoro-3-(naphthalene-1-carbonyl)-1-pentyl-1H-indole], the Ki turned out to be 2.35 nM in series [3] (setting [6]) and 16.4 nM in series [4] (setting [7]). Further, the “effect on SNE-induced mechanical allodynia (ipsilateral hindpaw withdrawal thresholds)” value in series [1] (0.3 mg/kg, systemic injection) is “anti-allodynic effects”. Also, the “SNE Neuropath Assay-% return to pre-drug (0.3 mg/kg) contralateal threshold at 2-3 h” value in series [1] (0.3 mg/kg) is listed as 54.4%.
Take `CCCc1ccc(C(=O)c2cn(CCCCCF)c3cccc(F)c23)c2ccccc12` [Compound 67, 4-fluoro-1-(5-fluoropentyl)-3-(4-propyl-naphthalene-1-carbonyl)-1H-indole]: the “Plasma % remaining @ xy min” value in series [2] (60 min) is listed as 95 @ 60%. Further, the Ki in series [3] (setting [6]) worked out at 2.55 nM; in series [4], 3.61 nM. In series [5] (60 min), the “S9% remaining @ xy min” value is listed as 6 @ 60%.
Regarding `Cc1c(C(=O)NN2CCCCC2)nn(-c2ccc(Cl)cc2Cl)c1-c1ccc(Cl)cc1` [SR141617A, rimonabant, reference compound], the “effect of pretreatment with the CBR blocker on the anti-allodynic effect of PrNMI” value in series [1] is recorded as “completely blocked”.
Still for that read-out and setting: under SR144528 [reference compound] stands “little effect”.
